# Assay results: ChEMBL document CHEMBL1201862, “PubChem BioAssay data set” (2004)
#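 Cells were grown in 96-well plates and exposed to each compound for 48 hours at five concentrations; endpoints were interpolated linearly between bracketing concentrations, or set to the highest concentration if not reached. GI50 = concentration required for 50% inhibition of growth.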 Calls of active or inactive are those of the source. Rule as the data show it: active = GI50 up to about 1.1 µM and inactive = higher.
# Tests used:
# Assay in all cases: DTP human tumour cell line panel, 48 h
# SR = tested on: SR
# DLD-1 = tested on: DLD-1
# NCI-H522 = tested on: NCI-H522
# DMS-273 = tested on: DMS-273
# SK-MEL-2 = tested on: SK-MEL-2
# DMS-114 = tested on: DMS-114
# KM-20L2 = tested on: KM-20L2
# CAKI-1 = tested on: CAKI-1
# LXFL 529 = tested on: LXFL 529
# HOP-18 = tested on: HOP-18
# M19-MEL = tested on: M19-MEL
# SNB-78 = tested on: SNB-78
# COLO 205 = tested on: COLO 205
# OVCAR-5 = tested on: OVCAR-5
# HT-29 = tested on: HT-29
# UO-31 = tested on: UO-31
# RPMI-8226 = tested on: RPMI-8226
# OVCAR-8 = tested on: OVCAR-8
# SF-539 = tested on: SF-539
# HCC 2998 = tested on: HCC 2998
# SK-MEL-5 = tested on: SK-MEL-5
# SF-268 = tested on: SF-268
# NCI-H23 = tested on: NCI-H23
# SW-620 = tested on: SW-620
# UACC-62 = tested on: UACC-62
# A498 = tested on: A498
# Malme-3M = tested on: Malme-3M
# SK-OV-3 = tested on: SK-OV-3
# SK-MEL-28 = tested on: SK-MEL-28
# NCI-H226 = tested on: NCI-H226
# HCT-116 = tested on: HCT-116
# IGROV-1 = tested on: IGROV-1
# SF-295 = tested on: SF-295
# RXF 393 = tested on: RXF 393
# HL-60 = tested on: HL-60
# NCI-H460 = tested on: NCI-H460
# OVCAR-3 = tested on: OVCAR-3
# HCT-15 = tested on: HCT-15
# LOX IMVI = tested on: LOX IMVI
# OVCAR-4 = tested on: OVCAR-4
# MOLT-4 = tested on: MOLT-4
# MCF7 = tested on: MCF7
# NCI/ADR-RES = tested on: NCI/ADR-RES
# SN12C = tested on: SN12C
# HOP-92 = tested on: HOP-92
# U-251 = tested on: U-251
# SNB-75 = tested on: SNB-75
# SNB-19 = tested on: SNB-19
# EKVX = tested on: EKVX
# KM12 = tested on: KM12
# UACC-257 = tested on: UACC-257
# HOP-62 = tested on: HOP-62
# A549 = tested on: A549
# CCRF-CEM = tested on: CCRF-CEM
# K562 = tested on: K562
smiles,measurement,setting,value
COc1ccc2c(c[n+](C)c3c4cc5c(cc4ccc23)OCO5)c1OC [CHELERYTHRINE CHLORIDE],GI50,SR,1.28 µM (inactive)
same,GI50,DLD-1,1.7 µM (inactive)
same,GI50,NCI-H522,2.14 µM (inactive)
same,GI50,DMS-273,2.04 µM (inactive)
same,GI50,SK-MEL-2,2.04 µM (inactive)
same,GI50,DMS-114,2.18 µM (inactive)
same,GI50,KM-20L2,1.74 µM (inactive)
same,GI50,CAKI-1,1.91 µM (inactive)
same,GI50,LXFL 529,1.73 µM (inactive)
same,GI50,HOP-18,1.8 µM (inactive)
same,GI50,M19-MEL,1.6 µM (inactive)
same,GI50,SNB-78,2 µM (inactive)
NC(Cc1c[nH]c2ccccc12)C(=O)O (stereo not drawn) [DL-TRYPTOPHAN],GI50,COLO 205,> 300 µM (inactive)
same,GI50,OVCAR-5,> 300 µM (inactive)
same,GI50,HT-29,> 300 µM (inactive)
same,GI50,UO-31,> 300 µM (inactive)
same,GI50,RPMI-8226,> 300 µM (inactive)
same,GI50,OVCAR-8,231 µM (inactive)
same,GI50,DLD-1,> 300 µM (inactive)
same,GI50,SF-539,> 300 µM (inactive)
same,GI50,HCC 2998,> 300 µM (inactive)
same,GI50,SK-MEL-5,> 300 µM (inactive)
same,GI50,SF-268,> 300 µM (inactive)
same,GI50,NCI-H23,> 300 µM (inactive)
same,GI50,SW-620,> 300 µM (inactive)
same,GI50,NCI-H522,> 300 µM (inactive)
same,GI50,UACC-62,> 300 µM (inactive)
same,GI50,A498,> 13.9 µM (inactive)
same,GI50,Malme-3M,> 300 µM (inactive)
same,GI50,SK-OV-3,> 300 µM (inactive)
same,GI50,SK-MEL-28,> 300 µM (inactive)
same,GI50,NCI-H226,30 µM (inactive)
same,GI50,DMS-273,> 300 µM (inactive)
same,GI50,HCT-116,> 300 µM (inactive)
same,GI50,IGROV-1,> 300 µM (inactive)
same,GI50,SF-295,> 300 µM (inactive)
same,GI50,RXF 393,> 300 µM (inactive)
same,GI50,HL-60,> 300 µM (inactive)
same,GI50,NCI-H460,> 300 µM (inactive)
same,GI50,SK-MEL-2,> 300 µM (inactive)
same,GI50,OVCAR-3,> 300 µM (inactive)
same,GI50,HCT-15,64.6 µM
same,GI50,LOX IMVI,> 300 µM (inactive)
same,GI50,OVCAR-4,> 300 µM (inactive)
same,GI50,MOLT-4,> 300 µM (inactive)
same,GI50,MCF7,> 300 µM (inactive)
same,GI50,NCI/ADR-RES,> 300 µM (inactive)
same,GI50,SN12C,3.74 µM (inactive)
same,GI50,HOP-92,> 300 µM (inactive)
same,GI50,U-251,> 300 µM (inactive)
same,GI50,SNB-75,> 300 µM (inactive)
same,GI50,SNB-19,> 300 µM (inactive)
same,GI50,DMS-114,> 300 µM (inactive)
same,GI50,KM-20L2,> 300 µM (inactive)
same,GI50,EKVX,> 300 µM (inactive)
same,GI50,CAKI-1,> 300 µM (inactive)
same,GI50,KM12,> 300 µM (inactive)
same,GI50,HOP-18,54.1 µM (inactive)
same,GI50,UACC-257,> 300 µM (inactive)
same,GI50,HOP-62,> 300 µM (inactive)
same,GI50,A549,> 300 µM (inactive)
same,GI50,M19-MEL,> 300 µM (inactive)
same,GI50,SNB-78,> 300 µM (inactive)
same,GI50,CCRF-CEM,> 300 µM (inactive)
same,GI50,K562,204 µM (inactive)
